These results are taken from ChEMBL document CHEMBL3045996, “Use of classical and 3-D QSAR to examine the hydration state of juvenile hormone esterase inhibitors” (Bioorg Med Chem, 2003).

Structures are written as SMILES.

The assay is described as follows: Inhibition of juvenile hormone esterase.
The term pIC50 denotes −log10 of the IC50, conventionally taken in molar units. Read a low pIC50 as a high IC50. Compound `CCCCCCCCSC(C)C(=O)C(F)(F)F` (configuration not stated) came in with a negative logarithm of the IC50 (pIC50) of 9.06.

`O=C(CSc1ccc(O)cc1)C(F)(F)F` showed a negative logarithm of the IC50 (pIC50) of 5.21.

In turn, `O=C(CSc1cc(Cl)ccc1Cl)C(F)(F)F` gave a negative-log IC50 (pIC50) of 7.64.

In the case of `O=C(CSC1CCCC1)C(F)(F)F`, the pIC50 turned out to be 5.01.

As for `O=C(CSc1ccc(Br)cc1)C(F)(F)F`, the pIC50 was 6.39.

The compound `O=C(CSc1ccccc1Oc1ccccc1)C(F)(F)F` registered a pIC50 of 6.66.

`CCCCCCCCSC(C(=O)C(F)(F)F)c1ccccc1` (configuration not stated) returned a pIC50 of 4.09.

The compound `CCCCCCCCCCCCC#CC(=O)C(F)(F)F` yielded a pIC50 of 8.

The compound `O=C(CSc1cccc(Cl)c1)C(F)(F)F` displayed a pIC50 of 6.4.

`O=C(CSCc1ccccc1)C(F)(F)F` returned a pIC50 of 4.82.

Compound `COc1ccccc1SCC(=O)C(F)(F)F` yielded a negative logarithm of the IC50 (pIC50) of 5.7.

Regarding `Cc1ccc(CSCC(=O)C(F)(F)F)cc1`, the pIC50 is recorded as 5.2.

Regarding `CCCCCCCC(C)SC(C)C(=O)C(F)(F)F` (configuration not stated), the pIC50 is given as 8.07.

`CCCCC#CC(=O)C(F)(F)F` showed a pIC50 of 5.49.

`O=C(c1ccccc1)C(F)(F)F` yielded a negative-log IC50 (pIC50) of 3.04.

As to `Cc1cccc(C)c1SCC(=O)C(F)(F)F`, the pIC50 worked out at 6.92.

The compound `CCCCCCCCCCCCC(=O)C(F)(F)F` returned a negative logarithm of the IC50 (pIC50) of 7.

Compound `CCCCCCCCCCSCC(=O)C(F)(F)F` displayed a pIC50 of 7.7.

As for `CCCCCCCCC(=O)C(F)(F)F`, the negative logarithm of the IC50 (pIC50) is 5.17.

With `COC(C)(C)CCC/C(C)=C\CCSCC(=O)C(F)(F)F`, the negative-log IC50 (pIC50) is 8.49.

In the case of `Cc1ccccc1CSCC(=O)C(F)(F)F`, the pIC50 was determined as 4.9.

In turn, `O=C(CSc1cc(Cl)c(Cl)cc1Cl)C(F)(F)F` returned a negative logarithm of the IC50 (pIC50) of 7.49.

As for `CCCCCCC#CC(=O)C(F)(F)F`, the pIC50 stood at 6.4.

In turn, `COc1ccc(SCC(=O)C(F)(F)F)cc1` displayed a pIC50 of 5.89.

For `Cc1ccc(SCC(=O)C(F)(F)F)cc1`, the pIC50 amounted to 6.96.

With `CCCCCCCCSC(CCC)C(=O)C(F)(F)F` (configuration not stated), the pIC50 is reported as 4.09.

As for `CCCCCCCCC#CC(=O)C(F)(F)F`, the pIC50 is reported as 7.24.

The compound `O=C(CSc1ccc(Cl)cc1)C(F)(F)F` registered a negative-log IC50 (pIC50) of 5.89.

`O=C(CSc1ccccc1Br)C(F)(F)F` gave a pIC50 of 6.17.

For `CCCCCCCCCCC#CC(=O)C(F)(F)F`, the pIC50 is given as 7.57.

`O=C(CSc1ccc(F)cc1)C(F)(F)F` displayed a pIC50 of 5.08.

Compound `CC(C)(C)c1ccc(SCC(=O)C(F)(F)F)cc1` yielded a pIC50 of 8.12.

`CCCCCCCCCCCCCCC(=O)C(F)(F)F` yielded a negative logarithm of the IC50 (pIC50) of 5.14.

In turn, `CCCCCCCCCCCCCSCC(=O)C(F)(F)F` registered a pIC50 of 7.35.

`Cc1ccccc1SCC(=O)C(F)(F)F`: the pIC50 was found to be 5.37.

Turning to `CCCCCCC(=O)C(F)(F)F`, the pIC50 came out at 3.66.

Regarding `O=C(CSc1c(F)c(F)cc(F)c1F)C(F)(F)F`, the pIC50 turned out to be 5.92.

Compound `CC(C)c1ccccc1SCC(=O)C(F)(F)F` gave a negative-log IC50 (pIC50) of 6.47.

Turning to `O=C(CSCc1ccc(Cl)cc1)C(F)(F)F`, the pIC50 came to 5.34.

On to `CC(C)=CCC/C(C)=C\CCSCC(=O)C(F)(F)F`, for which the negative logarithm of the IC50 (pIC50) was determined as 8.51.

Compound `O=C(CSc1ccccc1Nc1ccccc1)C(F)(F)F` had a pIC50 of 7.52.

`CCCCCCCCSCC(=O)C(F)(F)F` had a negative-log IC50 (pIC50) of 8.62.

As to `O=C(CSc1c(Cl)cccc1Cl)C(F)(F)F`, the negative logarithm of the IC50 (pIC50) is reported as 7.11.

The compound `CC(C)=CCCC(C)CCSCC(=O)C(F)(F)F` (configuration not stated) yielded a pIC50 of 8.35.

With `CC(C)=CCCC(C)C/C=C\c1ccc(C(=O)C(F)(F)F)cc1` (configuration not stated), the negative logarithm of the IC50 (pIC50) came out at 6.7.

Compound `COC(C)(C)CCCC(C)CCSCC(=O)C(F)(F)F` (configuration not stated) gave a pIC50 of 8.12.

Compound `Cc1cc(SCC(=O)C(F)(F)F)ccc1Br` gave a pIC50 of 7.89.

As for `COc1cccc(SCC(=O)C(F)(F)F)c1`, the negative-log IC50 (pIC50) came to 5.89.

As for `CCCCCCCCCCCCCC(=O)C(F)(F)F`, the negative logarithm of the IC50 (pIC50) is 5.41.

In turn, `CCC(C)CSCC(=O)C(F)(F)F` (configuration not stated) showed a pIC50 of 5.8.

`CC(C)(C)SCC(=O)C(F)(F)F`: the pIC50 is on record as 5.3.

The compound `Cc1cc(C)cc(SCC(=O)C(F)(F)F)c1` yielded a pIC50 of 5.74.

Consider `CCCCCSCC(=O)C(F)(F)F`, for which the negative logarithm of the IC50 (pIC50) came out at 6.11.

Compound `CCCCCCCCSC(CC)C(=O)C(F)(F)F` (configuration not stated) registered a pIC50 of 5.32.

With `O=C(CSCCc1ccccc1)C(F)(F)F`, the pIC50 was 5.49.

With `O=C(CSc1c(F)c(F)c(F)c(F)c1F)C(F)(F)F`, the negative-log IC50 (pIC50) stood at 4.96.

In the case of `CCCCCCCCCCCCCCSCC(=O)C(F)(F)F`, the negative-log IC50 (pIC50) turned out to be 6.4.

As to `CCCCSCC(=O)C(F)(F)F`, the pIC50 is recorded as 5.82.

On to `Cc1cccc(SCC(=O)C(F)(F)F)c1`, for which the pIC50 is on record as 6.89.

For the compound `CCCCCCCCCCCSCC(=O)C(F)(F)F`, the negative-log IC50 (pIC50) was 7.37.

The compound `CCCCCCCCCCCCCCCCCC(=O)C(F)(F)F` gave a pIC50 of 4.85.

`CCCCCCCC(=O)C(F)(F)F`: the negative logarithm of the IC50 (pIC50) is 4.17.

The compound `O=C(CSc1ccc(Cl)c(Cl)c1)C(F)(F)F` registered a pIC50 of 7.7.

In the case of `CCCCCCCCCCCCCCCCSCC(=O)C(F)(F)F`, the pIC50 was 6.2.

Consider `CC(CCC1OC1(C)C)CC1OC1c1ccc(C(=O)C(F)(F)F)cc1` (configuration not stated), for which the pIC50 is listed as 3.3.

For `O=C(CSC1CCCCC1)C(F)(F)F`, the pIC50 was 5.28.

The compound `CCCCCCCCS(=O)(=O)CC(=O)C(F)(F)F` registered a negative-log IC50 (pIC50) of 6.9.

In the case of `CCCCCCCCCCCCSCC(=O)C(F)(F)F`, the pIC50 is 7.82.

`O=C(C[S+]([O-])c1ccccc1)C(F)(F)F` (configuration not stated): the pIC50 stood at 4.21.

Consider `CCCCCCCC[S+]([O-])CC(=O)C(F)(F)F` (configuration not stated), for which the pIC50 worked out at 7.37.

In turn, `CCCCCCCSCC(=O)C(F)(F)F` yielded a negative-log IC50 (pIC50) of 8.09.

`O=C(CSc1ccccc1Cl)C(F)(F)F` yielded a pIC50 of 5.68.

With `CCCCCCCC(CCC)SCC(=O)C(F)(F)F` (configuration not stated), the pIC50 was found to be 7.89.

As to `CCCCCCCCCCS(=O)(=O)CC(=O)C(F)(F)F`, the pIC50 came out at 7.36.

As for `COc1ccc(C(=O)C(F)(F)F)cc1`, the negative logarithm of the IC50 (pIC50) is reported as 4.15.

Take `CCCCCC/C=C\C(=O)C(F)(F)F`: the pIC50 is 4.1.

In turn, `CC(C/C=C\c1ccc(C(=O)C(F)(F)F)cc1)CCC1OC1(C)C` (configuration not stated) had a pIC50 of 6.52.

`O=C(CSc1ccccc1)C(F)(F)F` gave a pIC50 of 5.06.

In turn, `CCCCCCCCCCCCS(=O)(=O)CC(=O)C(F)(F)F` had a negative-log IC50 (pIC50) of 7.21.

With `O=C(C#Cc1ccccc1)C(F)(F)F`, the pIC50 worked out at 5.27.

Turning to `CCCCCCCC(CC)SCC(=O)C(F)(F)F` (configuration not stated), the negative logarithm of the IC50 (pIC50) turned out to be 8.24.

Consider `O=C(CS(=O)(=O)c1ccccc1)C(F)(F)F`, for which the negative logarithm of the IC50 (pIC50) came out at 3.98.

`O=C(CS(=O)(=O)CCc1ccccc1)C(F)(F)F` registered a negative-log IC50 (pIC50) of 6.31.

Turning to `Cc1cccc(CSCC(=O)C(F)(F)F)c1`, the pIC50 is given as 5.1.

`O=C(CSCc1ccccc1Cl)C(F)(F)F`: the negative-log IC50 (pIC50) is on record as 5.18.

In turn, `CCc1ccccc1SCC(=O)C(F)(F)F` had a pIC50 of 5.54.

The compound `O=C(CSc1cccc(C(F)(F)F)c1)C(F)(F)F` registered a pIC50 of 5.6.

In turn, `O=C(CSc1cccc(Br)c1)C(F)(F)F` showed a pIC50 of 6.06.

In turn, `CCCCCCCC(CCCC)SCC(=O)C(F)(F)F` (configuration not stated) showed a negative logarithm of the IC50 (pIC50) of 7.16.

`O=C(CSc1ccccc1CO)C(F)(F)F` yielded a pIC50 of 5.15.

With `CN(C)c1ccc(SCC(=O)C(F)(F)F)cc1`, the negative-log IC50 (pIC50) amounted to 7.05.

Turning to `Cc1ccc(C)c(SCC(=O)C(F)(F)F)c1`, the negative logarithm of the IC50 (pIC50) was 6.77.

The compound `CCCCCCCCCCC(=O)C(F)(F)F` yielded a negative-log IC50 (pIC50) of 6.66.

Compound `O=C(CSCCCc1ccccc1)C(F)(F)F` registered a pIC50 of 6.77.

In turn, `CCCCC(C)(C)CC(C)CSCC(=O)C(F)(F)F` (configuration not stated) came in with a pIC50 of 7.98.

`CC(C)(C)c1ccc([S+]([O-])CC(=O)C(F)(F)F)cc1` (configuration not stated) gave a pIC50 of 7.64.

`CCCCCCCCCCCCCCCCCCSCC(=O)C(F)(F)F` displayed a pIC50 of 6.3.

The compound `CCCCCCCCCCCCc1ccc(CSCC(=O)C(F)(F)F)cc1` gave a negative logarithm of the IC50 (pIC50) of 5.8.

The compound `CCCCCCCCCSCC(=O)C(F)(F)F` had a pIC50 of 8.43.

`Cc1ccc(SCC(=O)C(F)(F)F)cc1C` returned a pIC50 of 7.96.

Compound `O=C(CSc1c(Cl)c(Cl)c(Cl)c(Cl)c1Cl)C(F)(F)F` displayed a negative-log IC50 (pIC50) of 7.8.

Regarding `CCCCCCCC(C)SCC(=O)C(F)(F)F` (configuration not stated), the negative logarithm of the IC50 (pIC50) is given as 9.77.

Turning to `CCCCCC/C=C/C(=O)C(F)(F)F`, the pIC50 was determined as 5.14.

With `Cc1ccc(SCC(=O)C(F)(F)F)c(C)c1`, the pIC50 was found to be 6.04.

Consider `Cc1cc(C(C)(C)C)ccc1SCC(=O)C(F)(F)F`, for which the pIC50 is 8.52.

With `CCCCCCCC/C=C/C(=O)C(F)(F)F`, the pIC50 was found to be 6.06.

`CC(C)CCSCC(=O)C(F)(F)F`: the negative-log IC50 (pIC50) is 5.6.
